Measurements as given in patent publication US20240116985A1, “STAPLED PEPTIDES AND METHODS THEREOF” (priority 2020, published 2024).
Where two headings read alike, the source gives them in different places.

Tests used:
[1] = CHI Log D procedure; assay type: physicochemical; conditions: for CHI Log D: pH 7.4; for chromatographic logD: pH 7.4, CHI Log D
[2] = biological target: T1, full-length beta-Catenin (Uniprot ID P35222) (Homo sapiens, UniProt P35222); experiment: Fluorescence polarization IC50 (beta-catenin / 5FAM-TCF4 10-53 competition); assay type: binding
T1 construct: 10 nM full-length beta-Catenin (Uniprot ID P35222)
T1 sequence (P35222 1-781): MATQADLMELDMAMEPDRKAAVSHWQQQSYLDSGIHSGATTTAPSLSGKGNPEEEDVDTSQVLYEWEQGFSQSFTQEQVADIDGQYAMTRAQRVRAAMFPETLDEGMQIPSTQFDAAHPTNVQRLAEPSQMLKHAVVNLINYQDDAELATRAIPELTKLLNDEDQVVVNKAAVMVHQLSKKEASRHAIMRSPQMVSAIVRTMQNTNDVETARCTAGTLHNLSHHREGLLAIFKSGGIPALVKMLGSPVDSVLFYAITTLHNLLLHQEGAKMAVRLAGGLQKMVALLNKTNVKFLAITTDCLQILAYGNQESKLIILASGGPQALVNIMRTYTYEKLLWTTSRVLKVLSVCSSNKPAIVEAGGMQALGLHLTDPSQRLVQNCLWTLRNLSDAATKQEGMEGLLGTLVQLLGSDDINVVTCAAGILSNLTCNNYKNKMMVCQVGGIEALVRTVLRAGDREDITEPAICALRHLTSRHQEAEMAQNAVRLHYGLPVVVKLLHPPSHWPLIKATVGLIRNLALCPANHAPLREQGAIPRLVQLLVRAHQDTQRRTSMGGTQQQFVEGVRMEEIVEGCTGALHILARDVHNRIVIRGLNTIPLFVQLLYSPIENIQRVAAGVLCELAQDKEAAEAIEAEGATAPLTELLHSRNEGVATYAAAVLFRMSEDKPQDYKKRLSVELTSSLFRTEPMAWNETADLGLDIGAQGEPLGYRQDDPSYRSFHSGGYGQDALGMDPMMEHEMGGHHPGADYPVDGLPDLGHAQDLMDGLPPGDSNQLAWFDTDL

[3] = biological target: T2, full-length B-Catenin (Uniprot ID P35222) (Homo sapiens, UniProt P35222); experiment: Alphascreen binding assay (beta-catenin / biotin-TCF4 10-53)
T2 construct: 65 nM full-length B-Catenin (Uniprot ID P35222)
T2 sequence (P35222 1-781): T1 sequence (P35222 1-781)
Method in brief: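 AlphaScreen (Ni-chelate beads) competition in 50 mM Tris pH 8.0, 250 mM NaCl with detergents and 0.1% BSA. Peptide titrated 10 uM–5 nM against 65 nM human β-catenin bound to 10 nM biotinylated TCF4 10-53, 15 min then 60 min with beads, both at 20 °C; 1:1 Hill-slope fit.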

[4] = Table E2-1, read-out: beta-Catenin FP IC50
[5] = fluorescence polarization, beta-catenin, read-out: FP EC50

Compound	CHI Log D [1]	IC50 [2, 4] [nM]	IC50 [2, 5] [nM]	EC50 [3] [nM]	chromatographic logD [1]
CC[C@H](C)[C@@H]1NC(=O)[C@H](CC(=O)O)NC(=O)[C@]2(CC=CCCCC3(CCCC=CCOC(=O)N(C)CCC[C@@](C)(C(=O)N[C@@H](Cc4ccccc4)C(=O)N[C@@H](Cc4c[nH]c5ccccc45)C(=O)N[C@@H](Cc4c[nH]cn4)C(N)=O)NC(=O)[C@H](CCC(N)=O)NC(=O)[C@H](Cc4ccccc4)NC(=O)[C@H](C)NC(=O)[C@H](C)NC(=O)[C@H](CC(=O)O)NC(=O)[C@H](CC(=O)O)NC3=O)NC1=O)CCCN2C(C)=O (stereo partly drawn) [I-190, Ac-PL3-Asp-Ile-B5-Asp-Asp-Ala-Ala-Phe-Gln-SeN-Phe-Trp-His-NH2]	1.736	696	696	94	
CC[C@H](C)[C@@H]1NC(=O)[C@H](CC(=O)O)NC(=O)[C@]2(CC=CCCCC3(CCCC=CCCCCCC[C@@](C)(C(=O)N[C@@H](Cc4ccccc4)C(=O)N[C@@H](Cc4c[nH]c5ccccc45)C(N)=O)NC(=O)[C@H](CCC(N)=O)NC(=O)[C@H](Cc4ccccc4)NC(=O)[C@H](C)NC(=O)[C@H](C)NC(=O)[C@H](CCC(=O)O)NC(=O)[C@H](CC(=O)O)NC3=O)NC1=O)CCCN2C(C)=O (stereo partly drawn) [I-191, Ac-PL3-Asp-Ile-B5-Asp-Glu-Ala-Ala-Phe-Gln-S8-Phe-Trp-NH2]	2.412	1660	1660	240	
CC[C@H](C)[C@@H]1NC(=O)[C@H](CC(=O)O)NC(=O)[C@]2(CC=CCCCC3(CCCC=CCCCCCC[C@@](C)(C(=O)N[C@@H](Cc4ccccc4)C(=O)N[C@@H](Cc4c[nH]c5ccccc45)C(N)=O)NC(=O)[C@H](CCC(N)=O)NC(=O)[C@H](Cc4ccccc4)NC(=O)[C@H](C)NC(=O)[C@H](C)NC(=O)[C@H](CCC(=O)O)NC(=O)[C@H](CC(=O)O)NC3=O)NC1=O)CCCN2C(C)=O (stereo partly drawn) [I-192, Ac-PL3-Asp-Ile-B5-Asp-Glu-Ala-Ala-Phe-Gln-S8-Phe-Trp-NH2]	2.412		1660	240	
CC[C@H](C)[C@@H]1NC(=O)[C@H](CC(=O)O)NC(=O)[C@]2(CC=CCCCC3(CCCC=CCCCCCC[C@@](C)(C(=O)N[C@@H](Cc4ccccc4)C(=O)N[C@@H](Cc4c[nH]c5ccccc45)C(N)=O)NC(=O)[C@H](CCC(N)=O)NC(=O)[C@H](Cc4ccccc4)NC(=O)[C@H](C)NC(=O)[C@H](C)NC(=O)[C@H](CCC(=O)O)NC(=O)[C@H](CC(=O)O)NC3=O)NC1=O)CCCN2C(C)=O (stereo partly drawn) [I-193, Ac-PL3-Asp-Ile-B5-Asp-Glu-Ala-Ala-Phe-Gln-S8-Phe-Trp-NH2]	2.462	533	533	76	
CC[C@H](C)[C@@H]1NC(=O)[C@H](CC(=O)O)NC(=O)[C@]2(CC=CCCCC3(CCCC=CCCCCCC[C@@](C)(C(=O)N[C@@H](Cc4ccccc4)C(=O)N[C@@H](Cc4c[nH]c5ccccc45)C(=O)N[C@@H](C)C(N)=O)NC(=O)[C@H](CCC(N)=O)NC(=O)[C@H](Cc4ccccc4)NC(=O)[C@H](C)NC(=O)[C@H](C)NC(=O)[C@H](CCC(=O)O)NC(=O)[C@H](CC(=O)O)NC3=O)NC1=O)CCCN2C(C)=O (stereo partly drawn) [I-194, Ac-PL3-Asp-Ile-B5-Asp-Glu-Ala-Ala-Phe-Gln-S8-Phe-Trp-Ala-NH2]		1010		105	2.33
CC(=O)N1CCC[C@]12CC=CCCCC1(CCCC=CCCCCCC[C@@](C)(C(=O)N[C@@H](Cc3ccccc3)C(=O)N[C@@H](Cc3c[nH]c4ccccc34)C(=O)N[C@@H](CCC(N)=O)C(N)=O)NC(=O)[C@H](C(C)C)NC(=O)[C@H](Cc3cccc(C)c3)NC(=O)[C@H](C)NC(=O)[C@H](C)NC(=O)[C@H](CCC(=O)O)NC(=O)[C@H](CC(=O)O)NC1=O)NC(=O)[C@H](C)NC(=O)[C@H](CC(=O)O)NC2=O (stereo partly drawn) [I-207, Ac-PL3-Asp-Ala-B5-Asp-Glu-Ala-Ala-3MeF-Val-S8-Phe-Trp-Gln-NH2]	2.054	1750	1750	143	
COc1ccc(C[C@@H]2NC(=O)[C@H](C)NC(=O)[C@H](C)NC(=O)[C@H](CCC(=O)O)NC(=O)[C@H](CC(=O)O)NC(=O)C3(CCCC=CCCCCCC[C@@](C)(C(=O)N[C@@H](Cc4ccccc4)C(=O)N[C@@H](Cc4c[nH]c5ccccc45)C(=O)N[C@@H](CCC(N)=O)C(N)=O)NC(=O)[C@H](C(C)C)NC2=O)CCCC=CC[C@]2(CCCN2C(C)=O)C(=O)N[C@@H](CC(=O)O)C(=O)N[C@@H](C)C(=O)N3)cc1 (stereo partly drawn) [I-217, Ac-PL3-Asp-Ala-B5-Asp-Glu-Ala-Ala-MeTyr-Val-S8-Phe-Trp-Gln-NH2]	2.012	1960	1960	90	
CC(=O)N1CCC[C@]12CC=CCCCC1(CCCC=CCCCCCC[C@@](C)(C(=O)N[C@@H](Cc3ccccc3)C(=O)N[C@@H](Cc3c[nH]c4ccccc34)C(=O)N[C@@H](CCC(N)=O)C(N)=O)NC(=O)[C@H](C(C)C)NC(=O)[C@H](Cc3cc(F)cc(F)c3)NC(=O)[C@H](C)NC(=O)[C@H](C)NC(=O)[C@H](CCC(=O)O)NC(=O)[C@H](CC(=O)O)NC1=O)NC(=O)[C@H](C)NC(=O)[C@H](CC(=O)O)NC2=O (stereo partly drawn) [I-219, Ac-PL3-Asp-Ala-B5-Asp-Glu-Ala-Ala-35FF-Val-S8-Phe-Trp-Gln-NH2]	2.074	2860	2860	131	
CC(=O)N1CCC[C@]12CC=CCCCC1(CCCC=CCCCCCC[C@@](C)(C(=O)N[C@@H](Cc3ccccc3)C(=O)N[C@@H](Cc3c[nH]c4ccccc34)C(=O)N[C@@H](CCC(N)=O)C(N)=O)NC(=O)[C@H](C(C)C)NC(=O)[C@H](Cc3cccc(C(F)(F)F)c3)NC(=O)[C@H](C)NC(=O)[C@H](C)NC(=O)[C@H](CC(=O)O)NC(=O)[C@H](CC(=O)O)NC1=O)NC(=O)[C@H](C)NC(=O)[C@H](CC(=O)O)NC2=O (stereo partly drawn) [I-238, Ac-PL3-Asp-Ala-B5-Asp-Asp-Ala-Ala-3F3MeF-Val-S8-Phe-Trp-Gln-NH2]	2.074	1590	1590	267	
CC(=O)N1CCC[C@]12CC=CCCCC1(CCCC=CCCCCCC[C@@](C)(C(=O)N[C@@H](Cc3ccccc3)C(=O)N[C@@H](Cc3c[nH]c4ccccc34)C(=O)N[C@@H](CCC(N)=O)C(N)=O)NC(=O)[C@H](C(C)C)NC(=O)[C@H](Cc3cccc(C(F)(F)F)c3)NC(=O)[C@H](C)NC(=O)[C@H](C)NC(=O)[C@H](CC(=O)O)NC(=O)[C@H](CC(=O)O)NC1=O)NC(=O)[C@H](C)NC(=O)[C@H](CC(=O)O)NC2=O (stereo partly drawn) [I-239, Ac-PL3-Asp-Ala-B5-Asp-Asp-Ala-Ala-3F3MeF-Val-S8-Phe-Trp-Gln-NH2]	2.074		1590	267	
CC(=O)N1CCC[C@]12CC=CCCCC1(CCCC=CCCCCCC[C@@](C)(C(=O)N[C@@H](Cc3cccc4ccccc34)C(=O)N[C@@H](Cc3c[nH]c4ccccc34)C(=O)N[C@@H](CCC(N)=O)C(N)=O)NC(=O)[C@H](C(C)C)NC(=O)[C@H](Cc3ccccc3)NC(=O)[C@H](C)NC(=O)[C@H](C)NC(=O)[C@H](CC(=O)O)NC(=O)[C@H](CC(=O)O)NC1=O)NC(=O)[C@H](C)NC(=O)[C@H](CC(=O)O)NC2=O (stereo partly drawn) [I-276, Ac-PL3-Asp-Ala-B5-Asp-Asp-Ala-Ala-Phe-Val-S8-1NapA-Trp-Gln-NH2]	2.207	3430	3430	329	
CC(=O)N1CCC[C@]12CC=CCCCC1(CCCC=CCCCCCC[C@@](C)(C(=O)N[C@@H](Cc3c[nH]cn3)C(=O)N[C@@H](Cc3c[nH]c4ccccc34)C(=O)N[C@@H](CCC(N)=O)C(N)=O)NC(=O)[C@H](C(C)C)NC(=O)[C@H](Cc3ccccc3)NC(=O)[C@H](C)NC(=O)[C@H](C)NC(=O)[C@H](CC(=O)O)NC(=O)[C@H](CC(=O)O)NC1=O)NC(=O)[C@H](C)NC(=O)[C@H](CC(=O)O)NC2=O (stereo partly drawn) [I-285, Ac-PL3-Asp-Ala-B5-Asp-Asp-Ala-Ala-Phe-Val-S8-His-Trp-Gln-NH2]		5000		246	1.49
